Measured values published in patent US7807369B2, “Methods and means for the treatment of HPV induced intraepithelial neoplasia” (Leiden University Medical Center, priority 2005, dated 2010).

What was measured:
[1] = tested on: HPV16 VLP-specific IgG and IgA; assay: HPV16 VLP ELISA of serum over time in imiquimod-treated patients; assay type: in vivo, human; conditions: serum at week 0, 8 and 16; 17 VIN3 patients
Method: IgG and IgA reactivity to HPV16 VLPs over time in 17 VIN3 patients treated with imiquimod. At least two serum specimens were tested in every patient. Serological responses are shown at week 0 (before imiquimod treatment), week 8 (during imiquimod treatment) and at week 16 (after imiquimod treatment). The OD values are depicted as median ±SD of positive responses. The OD values were calculated by subtraction of the background response value and the mean OD value of the young children's sera.
(§1) Seventeen of these 29 subjects (age 29-60 years, median 43 years) were experimentally treated with a 5% imiquimod cream. The patients were asked to apply the cream to the affected areas on the vulva twice weekly overnight for a maximum period of 16 weeks. In order to analyze the effect of imiquimod treatment on the HPV16-specific immune response, we collected serial blood and serum samples before the start of imiquimod treatment (T=0), after 8 weeks of treatment (T=8), and at the end of treatment (T=16). Vulvar lesions were assessed by direct measurement and photographic records at entry, and after 8 and 16 weeks of treatment. Clinical responses were defined as a complete response (CR), a partial response type1 (PR1), as defined by a reduction in lesion diameter from 76-99%, a partial response type2 (PR2), as defined by a reduction in lesion diameter from 26-75%, or no clinical response. […]

VIN = conditions: topical treatment of VIN; estimate from refs 17-21; cited from earlier work
[2] = tested on: HPV16-specific IFNγ-producing T-cells; assay: HPV16-specific T-cell reactivity by IFNγ ELISPOT before, during and after imiquimod treatment; assay type: in vivo, human; conditions: PBMC at week 0, 8 and 16
Source text: as §1, with “treatment.” for “treatment. Clinical responses were defined as a complete response (CR), a partial response type1 (PR1), as defined by a reduction in lesion diameter from 76-99%, a partial response type2 (PR2), as defined by a reduction in lesion diameter from 26-75%, or no clinical response.”
The number of IFNγ producing HPV-specific T-cells, present in the peripheral blood of the 17 patients treated with imiquimod, was quantified using ELISPOT that was performed as described previously (29; 30). […] Spots were counted with a fully automated computer-assisted-video-imaging analysis system (Bio Sys). Specific spots were calculated by subtracting the mean number of spots+2×SD of the medium control from the mean number of spots in experimental wells provided that the mean number of spots of the medium control wells were either <10 or >10 with a standard deviation <20% of the mean. […]

high-grade VIN = assay: Clinical response of high-grade VIN lesions to 5% imiquimod cream; assay type: in vivo, human
Source text: Twenty-nine women with high-grade VIN (age range, 24-73 years; median age, 47 years) were recruited from the departments of gynecology of the Academic Medical Center, and Leiden and Erasmus University Medical Center, The Netherlands. On the average, these patients had been diagnosed with VIN3 5,4 years before enrollment in the study (range, 6 months-15 years). Eighteen women had undergone previous treatments for VIN3 (surgical excision, laser therapy or imiquimod treatment (#21, 24, 27)) before study entry.
Seventeen of these 29 subjects (age 29-60 years, median 43 years) were experimentally treated with a 5% imiquimod cream. The patients were asked to apply the cream to the affected areas on the vulva twice weekly overnight for a maximum period of 16 weeks. In order to analyze the effect of imiquimod treatment on the HPV16-specific immune response, we collected serial blood and serum samples before the start of imiquimod treatment (T=0), after 8 weeks of treatment (T=8), and at the end of treatment (T=16). Vulvar lesions were assessed by direct measurement and photographic records at entry, and after 8 and 16 weeks of treatment. Clinical responses were defined as a complete response (CR), a partial response type1 (PR1), as defined by a reduction in lesion diameter from 76-99%, a partial response type2 (PR2), as defined by a reduction in lesion diameter from 26-75%, or no clinical response.
Statistical analysis of the HPV16-specific proliferative responses associated with cytokine production was performed using Fisher's exact test. Fisher's Exact test (2-tailed) was used to analyze HPV-specific immunity to clinical response upon treatment with imiquimod. Statistical analyzes were performed using Graphpad Instat Software (version 3.0).

[3] = of 17 women treated, 5% cream, max 16 weeks

SMILES: CC(C)Cn1cnc2c(N)nc3ccccc3c21 [imiquimod, 1-(2-methylpropyl)-1H-imidazo[4,5-c]quinolin-4-amine]
- change of HPV16 VLP-specific IgG and IgA response [1]: did not overly change
- clinical success rates (VIN): 30-87%
- effect on numbers of HPV16-specific T-cells [2]: In none of the patients a clear-cut increase of HPV16-specific T-cells was detected
- women with overt clinical response (CR or PR1, 76-100% reduction in lesion size) (high-grade VIN; 13 of 17 women with high-grade VIN, 5% cream twice weekly, max 16 weeks): 76%
- likelihood of CR or PR1 in patients without an HPV-specific immune response (high-grade VIN; HPV16+ patients (n=15), versus those with a response, p=0.03, 2-sided Fisher's exact test): less likely to show such a clinical improvement
- patients with no reduction in size of the affected area of vulvar disease (high-grade VIN; [3]): Three
- patients with only minimal improvement upon treatment (high-grade VIN; [3]): one
- patients with complete or near complete clinical response (CR or PR1) (high-grade VIN; the 8 HPV16+ patients with an HPV-specific Th1 immune response (of n=15 HPV16+)): 8 patients
